Data: patent publication US20240199542A1, “SUBSTITUTED PYRROLIDIN-2-ONES, SALTS THEREOF AND THEIR USE AS HERBICIDALLY ACTIVE SUBSTANCES” (Bayer Aktiengesellschaft, priority 2021, published 2024)

Columns and labels:
Format in all cases: in vivo
[1] = system: Alopecurus myosuroides (ALOMY); assay: Herbicidal pre-emergence action; conditions: 1280 g/ha, graded after ca. 3 weeks
Excerpt: (§1) Seeds of mono- and dicotyledonous weed plants and crop plants were sown, in plastic or organic planting pots, in sandy loam and covered with soil. The compounds according to the invention, formulated in the form of wettable powders (WP) or as emulsifiable concentrates (EC), were applied to the surface of the covering soil as aqueous suspension or emulsion, with the addition of 0.5% of an additive, at an application rate of 600 1 of water/ha (converted).
(§2) Following treatment, the pots were placed in a greenhouse and kept under optimum growth conditions for the test plants. The visual grading of the damage to the test plants was carried out after ca. 3 weeks in comparison to untreated controls (herbicidal effect in percent (%): 100% effect=plants have died off, 0% effect=as control plants).
(§3) Tables A1 to A16, below, show the effects of selected compounds of the general formula (I) according to table 1 on various harmful plants and an application rate corresponding to 1280 g/ha or lower obtained by the experimental procedure mentioned above.

[2] = system: Avena fatua (AVEFA); assay: Herbicidal pre-emergence action; conditions: 1280 g/ha, graded after ca. 3 weeks
Excerpt: as §1, §2, §3

[3] = system: Cyperus esculentus (CYPES); assay: Herbicidal pre-emergence action; conditions: 1280 g/ha, graded after ca. 3 weeks
Excerpt: as §1, §2, §3

[4] = system: Echinochloa crus-galli (ECHCG); assay: Herbicidal pre-emergence action; conditions: 1280 g/ha, graded after ca. 3 weeks
Excerpt: as §1, §2, §3

[5] = system: Veronica persica (VERPE); assay: Herbicidal pre-emergence action; conditions: 1280 g/ha, graded after ca. 3 weeks
Excerpt: as §1, §2, §3

[6] = system: Alopecurus myosuroides (ALOMY); assay: Herbicidal post-emergence action; conditions: 1280 g/ha, assessed after ca. 3 weeks
Excerpt: (§4) Seeds of mono- and dicotyledonous weed plants and crop plants were sown, in plastic or organic planting pots, in sandy loam, covered with soil and grown in a greenhouse under controlled growth conditions. 2 to 3 weeks after sowing, the test plants were sprayed in the single-leaf stage. The compounds according to the invention, formulated in form of wettable powders (WP) or as emulsifiable concentrates (EC), were sprayed onto the green plant parts as aqueous suspension or emulsion, with the addition of 0.5% of an additive, at an application rate of 600 1 of water/ha (converted). The test plants were placed in the greenhouse for ca. 3 weeks under optimum growth conditions, and then the effect of the preparations was assessed visually in comparison with untreated controls (herbicidal effect in percent (%): 100% effect=plants have died off, 0% effect=as control plants).
(§5) Tables B1 to B16 below show the effects of selected compounds of the general formula (I) according to table 1 on various harmful plants and an application rate corresponding to 1280 g/ha or 320 g/ha obtained by the experimental procedure mentioned above.

[7] = system: Echinochloa crus-galli (ECHCG); assay: Herbicidal post-emergence action; conditions: 1280 g/ha, assessed after ca. 3 weeks
Excerpt: as §4, §5

[8] = system: Lolium multiflorum (LOLMU); assay: Herbicidal post-emergence action; conditions: 1280 g/ha, assessed after ca. 3 weeks
Excerpt: as §4, §5

[9] = system: Lolium multiflorum (LOLMU); assay: Herbicidal pre-emergence action; conditions: 1280 g/ha, graded after ca. 3 weeks
Excerpt: as §1, §2, §3

[10] = system: Polygonum convolvulus (POLCO); assay: Herbicidal pre-emergence action; conditions: 1280 g/ha, graded after ca. 3 weeks
Excerpt: as §1, §2, §3

[11] = system: Setaria viridis (SETVI); assay: Herbicidal pre-emergence action; conditions: 1280 g/ha, graded after ca. 3 weeks
Excerpt: as §1, §2, §3

[12] = system: Avena fatua (AVEFA); assay: Herbicidal post-emergence action; conditions: 1280 g/ha, assessed after ca. 3 weeks
Excerpt: as §4, §5

[13] = system: Polygonum convolvulus (POLCO); assay: Herbicidal post-emergence action; conditions: 1280 g/ha, assessed after ca. 3 weeks
Excerpt: as §4, §5

[14] = system: Setaria viridis (SETVI); assay: Herbicidal post-emergence action; conditions: 1280 g/ha, assessed after ca. 3 weeks
Excerpt: as §4, §5

Row | SMILES | Pre-emergence activity against ALOMY [1] [%] | Pre-emergence activity against AVEFA [2] [%] | Pre-emergence activity against CYPES [3] [%] | Pre-emergence activity against ECHCG [4] [%] | Pre-emergence activity against VERPE [5] [%] | Post-emergence activity against ALOMY [6] [%] | Post-emergence activity against ECHCG [7] [%] | Post-emergence activity against LOLMU [8] [%] | Pre-emergence activity against LOLMU [9] [%] | Pre-emergence activity against POLCO [10] [%] | Pre-emergence activity against SETVI [11] [%] | Post-emergence activity against AVEFA [12] [%] | Post-emergence activity against POLCO [13] [%] | Post-emergence activity against SETVI [14] [%]
1 | O=C(CC1CCC(=O)N1Cc1cccc(F)c1F)OCCS(=O)(=O)c1ccccc1 (racemic) [Example I-032] | 90 | 100 | 80 | 80 | 80 | 80 | 90 | 90 | – | – | – | – | – | –
2 | CC(C)C(C)OC(=O)CC1CCC(=O)N1Cc1cccc(F)c1F (racemic) [Example I-036] | 90 | 100 | – | 80 | 90 | 80 | 90 | – | 80 | 80 | 100 | 90 | – | –
3 | O=C(CC1CCC(=O)N1Cc1cccc(F)c1F)N1CCCC1 (racemic) [Example I-071] | 80 | 90 | – | – | – | – | – | – | – | 80 | – | 80 | 80 | –
4 | O=C(CC1CCC(=O)N1Cc1cccc(F)c1F)NCc1ccc(Cl)nc1 (racemic) [Example I-102] | – | – | – | – | 90 | – | – | – | – | 80 | – | – | – | –
5 | CCCNC(=O)CC1CCC(=O)N1Cc1cccc(F)c1F (racemic) [Example I-110] | – | – | – | – | – | – | – | – | – | – | – | – | 80 | –
6 | COC(=O)C(C(=O)CC1CCC(=O)N1Cc1cccc(F)c1F)C(=O)OC (racemic) [Example I-176] | 90 | 100 | – | 90 | – | 90 | 90 | 80 | 90 | 80 | – | 80 | 90 | 80
7 | COC(=O)[C@H](Cc1c[nH]cn1)NC(=O)CC1CCC(=O)N1Cc1cccc(F)c1F (single isomer, unassigned) [Example I-037] | 90 | 100 | 100 | 90 | – | 80 | – | – | 90 | – | 90 | 90 | 80 | –
8 | Cc1nonc1NC(=O)CC1CCC(=O)N1Cc1cccc(F)c1F (stereo not drawn) [Example I-046, 2-[1-[(2,3-difluorophenyl)methyl]-5-oxo-pyrrolidin-2-yl]-N-(4-methyl-1,2,5-oxadiazol-3-yl)acetamide] | – | 100 | 100 | – | 100 | – | – | 80 | – | – | – | 90 | – | –
